Laboratory results: US9452036B2, “Dental ultrasonic drug delivery system and dental ultrasonic drug delivery method” (priority 2009, dated 2016)

Assays:
[1] = test system: kanamycin-resistant enterococcus faecalis (lactococcus); assay: In vivo tubule sterilization test using ultrasound and nanobubbles (canine tooth root canal)
Description: After a canine tooth had been subjected to access cavity preparation and root canal enlargement (to #60) in vivo by common methods, a smear layer was removed with a Smear Clean (Nippon Shika Yakuhin Co., Ltd.). Then, the inside of the root canal was sufficiently dried with a cotton plug. Thereafter, 10 μl of a bacterial culture (a brain heart infusion (BHI) broth, Nissui Pharmaceuticals Co., Ltd., containing kanamycin) in which kanamycin-resistant enterococcus faecalis (lactococcus) subjected to gene transfer of pEGFP-C1 (clontech) was cultured was injected into each root canal. Subsequently, the root canal was temporarily sealed with zinc phosphate cement. Then, after 7 days, the root canal was irrigated with 3 ml of a saline solution. Thereafter, 20 μl of a drug solution containing 10% nanobubbles and 50 μg/ml of ampicillin was applied into the root canal. Then, with an ultrasound generator (SonoPore KTAC-4000), an ultrasonic device with a diameter of 1 mm of a detachable irradiation tube propagation type probe (i.e., an applicator type in which a Langevin transducer is provided inside a probe body) was inserted into the root canal, and ultrasound was delivered at a voltage of 30 V, a frequency of 1.186 MHz, a burst rate of 18.8 Hz, and a pulse-duty ratio of 50% for an application time of 120 seconds. […]

E. Coli = assay: In vitro tubule sterilization test using sodium hypochlorite and nanobubbles (extracted bovine teeth); assay type: cell-based; details: for OD600 value: paper point cultured 12 hours
Description: Using ten extracted bovine teeth (anterior teeth), the apical area of each of the teeth was filled with photopolymerization type ionomer cement. Then, the inside of the root cavity was treated with 6% sodium hypochlorite, irrigated, and sterilized with an autoclave. Thereafter, the inside of the root canal was sufficiently irrigated with a sterilized saline solution, dried with a paper point, filled with an E. Coli saturated solution, and then cultured in a humidity bath at 37° C. for a night. Then, the E. Coli solution in the root canal was sucked with a paper point, and the root canal was filled with an irrigation solution and 1% or 0.1% sodium hypochlorite. Thereafter, 5% nanobubbles were injected into the root canal, and ultrasound was applied thereto at a voltage of 30 V, a frequency of 1.186 MHz, a burst rate of 18.8 Hz, and a pulse-duty ratio of 50% for 120 seconds. Subsequently, the root canal was sufficiently irrigated with a saline solution, and the tooth was left for one minute with a paper point inserted into the root canal. Then, the paper point was cultured. After 12 hours, the amount of bacteria was measured with an absorbance OD600.

[2] = In-vitro test for drug permeation in root canal using ultrasound and nanobubbles (extracted canine tooth, fluorescence); assay type: in vitro ADME
Source text: After an extracted canine tooth had been subjected to access cavity preparation and root canal enlargement (to #60) by common methods, a smear layer was removed with a Smear Clean (Nippon Shika Yakuhin Co., Ltd.), and the tooth was refrigerated in a saline solution until being used in an experiment. Then, the inside of the root canal was sufficiently dried with a cotton plug. Thereafter, to prevent a drug solution from leaking from the root canal, an apical area was filled with a Unifast III (GC Corporation). Subsequently, nanobubbles were diluted with a saline solution such that the concentration of the nanobubbles is 5% or 10% (where the bubble concentration will be expressed in terms of vol % hereinafter), thereby preparing a drug solution containing 4.5 mg/ml tetracycline (SIGMA088K0680). The 5% nanobubbles herein mean that the concentration of the nanobubbles is 6×10^8/ml. The 10% nanobubbles herein mean that the concentration of the nanobubbles is 1.2×10^9/ml. Since even a small amount of deposited tetracycline produces fluorescence when irradiated with ultraviolet radiation, a deposition site can be easily detected with a fluorescence microscope. As a control, microbubbles (Optison (Molecular Biosystems Inc., San Diego)) were used, and a 5% or 10% drug solution was used. The 5% microbubbles herein mean that the concentration of the microbubbles is 6×10^8/ml. The 10% microbubbles herein mean that the concentration of the microbubbles is 1.2×10^9/ml. Then, 20 μl of the drug solution was applied into the root canal, and using an ultrasound generator (SonoPore KTAC-4000), an ultrasonic device with a diameter of 1 mm of a detachable irradiation tube propagation type probe (i.e., an applicator type in which a Langevin transducer is provided inside a probe body) was inserted into the root canal, and the device was operated. Operating conditions were that the voltage was 30 V (0.13-0.20 W indicated by a meter) or 31 V, the frequency was 1.186 MHz, the burst rate was 18.8 Hz, the pulse-duty ratio was 50%, and the application time was 120 seconds. After a lapse of the application time, the dilution solution was sufficiently removed with a cotton plug, and then a section with a thickness of 150 μm was prepared with a saw microtome (Leica SP1600), and a microscopic examination was performed with a stereomicroscope under ultraviolet irradiation. The degree of delivery of the drug into dentin tubules was observed based on fluorescence reaction.

**Q.** For `CC1(C)S[C@@H]2[C@H](NC(=O)[C@H](N)c3ccccc3)C(=O)N2[C@H]1C(=O)O` [ampicillin], which “bacteria in the lateral wall of the root canal” value ([1]; 50 μg/ml ampicillin delivered using 10% nanobubbles and ultrasound 30 V, 120 seconds, fourth day (FIG. 25A)) is on record?
**A.** The value was “no bacteria were observed”.

**Q.** What about the “bacteria in the lateral wall of the root canal” value ([1]; only ampicillin, fourth day (FIG. 25B)) of the same compound?
**A.** The value was “bacteria were not completely killed”.

**Q.** What does the source list for `OCl` [sodium hypochlorite]?
**A.** sterilization of the inside of the root canal (E. Coli; 0.1% sodium hypochlorite): sterilized only in the presence of 5% nanobubbles; bactericidal effect in the root canal (E. Coli; 1% sodium hypochlorite, irrespective of the presence of 5% nanobubbles): a bactericidal effect was obtained; OD600 value (E. Coli; sodium hypochlorite 1.0, 5% nanobubbles +, ultrasound 30 V 120 seconds): 0; OD600 value (E. Coli; sodium hypochlorite 1.0, 5% nanobubbles −): 0

**Q.** With `CN(C)[C@@H]1C(O)=C(C(N)=O)C(=O)[C@@]2(O)C(O)=C3C(=O)c4c(O)cccc4[C@@](C)(O)[C@H]3C[C@@H]12` [tetracycline] as the compound, how does the “degree of delivery of the drug to dentin tubules” value ([2]; 5% microbubbles, no ultrasound (FIG. 21E)) read?
**A.** Its value is “insufficient”.

**Q.** What about the “degree of delivery of the drug to dentin tubules” value ([2]; 5% microbubbles, ultrasound 30 V (FIG. 21D)) of the same compound?
**A.** Its value is “insufficient”.

**Q.** What about the “degree of delivery of the drug to dentin tubules” value ([2]; 5% nanobubbles, no ultrasound (FIG. 21C)) of the same compound?
**A.** Its value is “insufficient”.

**Q.** And the “degree of delivery of the drug to dentin tubules” value ([2]; 5% nanobubbles, ultrasound 30 V, 120 seconds, 4.5 mg/ml tetracycline (FIG. 21A))?
**A.** The value was “high”.

**Q.** And the “degree of delivery of the drug to dentin tubules” value ([2]; 5% nanobubbles, ultrasound 31 V (FIG. 21B))?
**A.** The value was “insufficient”.

**Q.** What about the “degree of delivery of the drug to dentin tubules” value ([2]; 10% microbubbles, no ultrasound (FIG. 22E)) of the same compound?
**A.** Its value is “insufficient”.

**Q.** What about the “degree of delivery of the drug to dentin tubules” value ([2]; 10% microbubbles, ultrasound 30 V (FIG. 22D)) of the same compound?
**A.** Its value is “insufficient”.

**Q.** And the “degree of delivery of the drug to dentin tubules” value ([2]; 10% nanobubbles, no ultrasound (FIG. 22C))?
**A.** Its value is “insufficient”.

**Q.** What about the “degree of delivery of the drug to dentin tubules” value ([2]; 10% nanobubbles, ultrasound 30 V, 120 seconds, 4.5 mg/ml tetracycline (FIG. 22A)) of the same compound?
**A.** The value was “high”.

**Q.** What about the “degree of delivery of the drug to dentin tubules” value ([2]; 10% nanobubbles, ultrasound 31 V (FIG. 22B)) of the same compound?
**A.** The value was “insufficient”.

**Q.** And the “drug permeation with nanobubbles compared with microbubbles” value ([2]; bubble concentrations of 5% and 10%)?
**A.** The value was “more significantly permeates”.

**Q.** And the “degree of delivery of the drug to dentin tubules, 10% nanobubbles compared with 5% nanobubbles” value ([2]; ultrasound 30 V (FIGS. 21A and 22A))?
**A.** The value was “higher”.
